Where “and” joins values, the source holds several entries; their conditions need not be identical. Identical values can stand only once. Calls of active or inactive are those of the source.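 How the source made its calls: active means IC50 of 25 µM or lower, counted as toxic to worms; inactive means the rest.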

A word on the IC50: it is the midpoint of a concentration-inhibition curve.

The data set concerns C. elegans VP596 worm health composite score, 20-22 h. In words: nematode toxicity of SKN-1 inhibitor analogs – whole organism, strain VP596, composite health score, round 3, cytotoxicity control for SKN-1 inhibitor project, SAR follow-up (AID 743062).
Regarding `Cc1ccc(-c2csc(-c3ccncc3)n2)cc1`, the IC50 was 54.6 µM (inactive).

In the case of `Fc1ccc(-c2csc(C3CCNCC3)n2)cc1`, the IC50 is > 64 µM (inactive).

For `COc1ccc(-c2csc(-c3ccncc3)n2)cc1`, the IC50 is > 64 µM (inactive).

In the case of `Cc1csc(-c2ccncc2)n1`, the IC50 is > 64 µM (inactive).

Consider `c1cc(-c2nc(-c3nccs3)cs2)ccn1`, for which the IC50 is > 64 µM (inactive).

For the molecule `FC(F)(F)c1ccc(-c2csc(-c3ccncc3)n2)cc1`, the half-maximal inhibitory concentration (IC50) was 20.3 µM.

In the case of `CCCc1cc(-c2nc(-c3ccc(NS(C)(=O)=O)cc3)cs2)ccn1`, the IC50 is > 64 µM (inactive).

As to `COc1ccccc1-c1csc(-c2ccncc2)n1`, the IC50 is 48.4 µM (inactive).

Regarding `Clc1ccc(-c2csc(-c3cccnc3)n2)cc1`, the IC50 was 11.1 µM and 29.4 µM (inactive).

As to `Fc1ccc(-c2csc(-c3ccncc3)n2)cc1`, the IC50 was 53.6 µM (inactive).

Turning to `COc1cccc(-c2csc(-c3ccncc3)n2)c1`, the IC50 is 55.7 µM (inactive).

Regarding `Clc1cccc(-c2csc(-c3ccncc3)n2)c1`, the IC50 was 16 µM.

Turning to `Clc1ccc(-c2csc(-c3ccncc3)n2)c(Cl)c1`, the IC50 was > 64 µM (inactive).

For the molecule `CCCc1cc(-c2nc(-c3ccc(C)cc3)cs2)ccn1`, the IC50 is > 64 µM (inactive).

For `Fc1ccc(-c2csc(-c3cccnc3)n2)cc1`, the IC50 is 35.6 µM (inactive).

Turning to `COc1ccc(-c2csc(C3CCNCC3)n2)cc1`, the IC50 was > 64 µM (inactive).

Turning to `Fc1ccc(-c2csc(-c3ccccn3)n2)cc1`, the IC50 is 42 µM (inactive).

On to `Fc1ccc(-c2csc(-c3ccccc3)n2)cc1`, for which the IC50 was 28.4 µM (inactive).

Take `c1ccc(-c2csc(-c3ccncc3)n2)cc1`: the IC50 was 42.4 µM (inactive).

Take `COc1ccc(-c2csc(-c3cccnc3)n2)cc1`: the IC50 is 36.4 µM (inactive).

On to `Clc1ccc(-c2csc(C3CCNCC3)n2)cc1`, for which the IC50 is > 64 µM (inactive).

For the molecule `N#Cc1ccc(-c2csc(-c3ccncc3)n2)cc1`, the IC50 was 37.2 µM (inactive).

Consider `COc1ccc(-c2csc(-c3ccccn3)n2)cc1`, for which the half-maximal inhibitory concentration (IC50) is 21.4 µM.

`Clc1ccc(-c2csc(-c3ccncc3)n2)cc1Cl`: the half-maximal inhibitory concentration (IC50) is 10.5 µM and 33.7 µM (inactive).

With `c1cc(-c2nc(C3CC3)cs2)ccn1`, the IC50 is > 64 µM (inactive).

Take `c1ccc(-c2nc(-c3cccnc3)cs2)cc1`: the IC50 was > 64 µM (inactive).

In the case of `Cc1ccccc1-c1csc(-c2ccncc2)n1`, the IC50 is 55.7 µM (inactive).

Regarding `COc1ccc(-c2nc(-c3ccncc3)sc2C)cc1`, the IC50 is > 64 µM (inactive).

On to `Clc1ccc(-c2csc(-c3ccncc3)n2)cc1`, for which the IC50 is 32.7 µM (inactive) and 11.5 µM.

As for `Cc1sc(C2CCNCC2)nc1-c1ccccc1`, the IC50 is > 64 µM (inactive).

`Cc1sc(-c2ccncc2)nc1-c1ccc(F)cc1`: the IC50 was > 64 µM (inactive).

As for `Cc1sc(-c2ccncc2)nc1-c1ccc(Cl)cc1`, the IC50 is > 64 µM (inactive).

As to `Cc1sc(-c2ccncc2)nc1-c1ccccc1`, the IC50 was 48.3 µM (inactive).

Consider `Cc1ccc(-c2csc(-c3ccccc3)n2)cc1`, for which the IC50 is > 64 µM (inactive).

For `Clc1ccc(-c2csc(-c3ccccn3)n2)cc1`, the IC50 is 23.1 µM and > 64 µM (inactive).

With `Cc1ccc(-c2nc(-c3ccncc3)sc2C)cc1`, the IC50 is > 64 µM (inactive).

In the case of `Clc1ccccc1-c1csc(-c2ccncc2)n1`, the IC50 is 33.2 µM (inactive).

As to `Cc1ccc(-c2csc(C3CCNCC3)n2)cc1`, the IC50 was > 64 µM (inactive).

As to `c1ccc(-c2csc(C3CCNCC3)n2)cc1`, the IC50 is > 64 µM (inactive).

As for `Clc1ccc(-c2csc(-c3ccccc3)n2)cc1`, the IC50 was > 64 µM (inactive).

Regarding `Cc1ccc(-c2csc(-c3cccnc3)n2)cc1`, the IC50 is > 64 µM (inactive).

Turning to `Cc1ccc(-c2csc(-c3ccccn3)n2)cc1`, the IC50 was > 64 µM (inactive).

As for `CC(C)(C)c1csc(-c2ccncc2)n1`, the IC50 is > 64 µM (inactive).

As to `c1ccc(-c2csc(-c3ccccn3)n2)cc1`, the IC50 was > 64 µM (inactive).

On to `COc1ccc(-c2csc(-c3ccccc3)n2)cc1`, for which the IC50 was > 64 µM (inactive).

Take `COC(=O)c1ccc(-c2csc(-c3ccncc3)n2)cc1`: the IC50 is > 64 µM (inactive).

Take `c1ccc(-c2csc(-c3cccnc3)n2)cc1`: the IC50 is 53.9 µM (inactive).

`Cc1cccc(-c2csc(-c3ccncc3)n2)c1`: the IC50 is 50.8 µM (inactive).

The values are drawn from PubChem BioAssay AID743062 (Sanford-Burnham Center for Chemical Genomics, 2013).
